What all share (assay type): functional
Holding throughout (details): read-out: ED50 (the source's name)

Test [1] relates to RPMI-7951. The experiment in a line: Cytotoxicity against human RPMI7951 cells.
In test [2] the test system is A549. The test is described as follows: Cytotoxicity against human A549 cells.
Test [3] relates to U-251. The test is described as follows: Cytotoxicity against human U251 cells.
In test [4] the test system is HT-29. The experiment in a line: Cytotoxicity against human HT-29 cells.

Among the data in ChEMBL document CHEMBL1149026, “Ohioensins and pallidisetins: novel cytotoxic agents from the moss Polytrichum pallidisetum” (1994) are EC50 values, retold here.

SMILES strings stand for the structures. In brackets after ≈: the same amount, converted by molar mass.

Consider `COc1cc(OC)c2c3c1-c1c(O)cccc1[C@@H]1Oc4ccccc4[C@@H](C[C@@H]2OC)[C@@H]31` [1,14-DI-O-METHYLDIHYDROOHIOENSIN B], for which the EC50 in test [1] and in test [2] was 1 µg/mL (≈ 2.4 µM) throughout.

Take `COc1cc(OC)c2c3c1-c1c(O)cccc1[C@@H]1Oc4ccccc4[C@@H](C[C@@H]2O)[C@@H]31` [1-O-METHYLDIHYDROOHIOENSIN B]: the EC50 in test [3] stood at 0.8 µg/mL (≈ 1.99 µM).

For `COc1cc(OC)c2c3c1C(=O)C[C@@H]1c4ccccc4O[C@@H](c4cccc(O)c4-2)[C@H]31` [1-O-METHYLOHIOENSIN B], the EC50 in test [3] worked out at 2 µg/mL (≈ 4.99 µM); in test [1], 1 µg/mL (≈ 2.5 µM); in test [4] it was 1 µg/mL (≈ 2.5 µM).

Regarding `O=C(/C=C/c1ccccc1)c1cc(O)cc2c1CC(c1ccccc1)O2` (stereo not given) [PALLIDISETIN A], the EC50 in test [3] and in test [1] was 1 µg/mL (≈ 2.92 µM) each time.

Consider `O=C(/C=C\c1ccccc1)c1cc(O)cc2c1CC(c1ccccc1)O2` (stereo not given) [PALLIDISETIN B], for which the EC50 in test [3] and in test [1] was 2 µg/mL (≈ 5.84 µM) throughout.
